Measurements: patent US20240279283A1, “CYCLIC PEPTIDE ANTIBIOTICS” (priority 2021, published 2024)
Bridge positions count the residues as written; N and C are the ends. Square brackets hold non-standard residues; d marks the D form. Peptide text beside a SMILES is read from it. Phe(4-Cl) = N[C@@H](Cc1ccc(Cl)cc1)C(=O)O; Gly(Nα-CH2CH2CONH2) = NC(=O)CCNCC(=O)O; 1Nal = N[C@@H](Cc1cccc2ccccc12)C(=O)O; His(π-Me) = Cn1cncc1C[C@H](N)C(=O)O; NMeY = CN[C@@H](Cc1ccc(O)cc1)C(=O)O; NMeR = CN[C@@H](CCCNC(=N)N)C(=O)O; aThr = C[C@H](O)[C@H](N)C(=O)O; Nle = CCCC[C@H](N)C(=O)O; Abu = CC[C@H](N)C(=O)O; Aib = CC(C)(N)C(=O)O

Assays:
Format in all cases: cell-based
Details in all cases: LB broth, 5×10^5 CFU/ml, 37° C., 18 hours, scored by eye
[1] = test system: E. coli 25922; assay: Minimum Inhibitory Concentration (MIC) determination, E. coli 25922; design: unit not given here
Experimental: (§1) MICs were determined by performing two-fold serial dilutions of peptides in LB broth to a final volume of 0.1 ml in round-bottom 96-well assay plates (Corning Life Sciences No 3788). Peptides were initially resuspended in 100% DMSO to 10 mM and subsequently diluted in LB medium to the appropriate concentration. Each well was inoculated with 5×10^5 CFU/ml of the screening stain and incubated at 37° C. without agitation for 18 hours. Plates were scored by eye, and the lowest compound concentration preventing visible growth was determined to be the MIC.

[2] = test system: K. pneumoniae ATCC43816; assay: Minimum Inhibitory Concentration (MIC) determination, K. pneumoniae ATCC43816; design: unit not given here
Experimental: as §1

[3] = test system: E. cloacae ATCC222; assay: Minimum Inhibitory Concentration (MIC) determination, E. cloacae ATCC222; design: unit not given here
Experimental: as §1

[4] = test system: E. coli 25922 IMP; assay: Minimum Inhibitory Concentration (MIC) determination, E. coli 25922 IMP
In short: (§2)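 Peptides, diluted two-fold in LB broth from 10 mM DMSO stocks, were inoculated with 5×10^5 CFU/ml of each strain. Incubation was 18 h at 37 °C without shaking. MIC is the lowest concentration preventing visible growth, scored by eye.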

[5] = test system: E. coli BW25113; assay: Minimum Inhibitory Concentration (MIC) determination, E. coli BW25113; design: unit not given here
In short: as §2

CC[C@@H]1NC(=O)[C@H](Cc2ccccc2)NC(=O)CSC[C@@H](C(=O)NCC(N)=O)NC(=O)[C@H](Cc2cncn2C)NC(=O)[C@H](CCCNC(=N)N)NC(=O)[C@H](Cc2c[nH]cn2)NC(=O)[C@H](Cc2ccc(O)cc2)N(C)C(=O)[C@H](CCCNC(=N)N)NC(=O)[C@H](CO)NC(=O)[C@@H](C)NC(=O)[C@H](Cc2c[nH]cn2)NC(=O)[C@H](Cc2cccc3ccccc23)NC1=O [Compound 26] ({CH2CO}-F[Abu][1Nal]H[dA]SR[NMeY]HR[His(π-Me)]CG-NH2; thioether N-12)
MIC E. coli 25922 WUXI::MIC [1]: 3.1
MIC K. pneumoniae ATCC43816 Wuxi::MIC [2]: 25
MIC E. cloacae ATCC222 WUXI::MIC [3]: 0.78
MIC E. coli 25922 IMP WUXI::MIC [4]: 0.0039
MIC E. coli BW25113 WUXI::MIC [5]: 6.3

CC[C@@H]1NC(=O)[C@H](Cc2ccccc2)NC(=O)CSC[C@@H](C(=O)NCC(N)=O)NC(=O)[C@H](Cc2cncn2C)NC(=O)[C@H](CCCNC(=N)N)NC(=O)[C@H](Cc2c[nH]cn2)NC(=O)[C@H](Cc2ccc(O)cc2)N(C)C(=O)[C@H](CCCNC(=N)N)NC(=O)[C@H](CO)NC(=O)CN(CCC(N)=O)C(=O)[C@H](Cc2c[nH]cn2)NC(=O)[C@H](Cc2cccc3ccccc23)NC1=O [Compound 30] ({CH2CO}-F[Abu][1Nal]H[Gly(Nα-CH2CH2CONH2)]SR[NMeY]HR[His(π-Me)]CG-NH2; thioether N-12)
MIC E. coli 25922 WUXI::MIC [1]: 25
MIC K. pneumoniae ATCC43816 Wuxi::MIC [2]: 100
MIC E. cloacae ATCC222 WUXI::MIC [3]: 1.6
MIC E. coli 25922 IMP WUXI::MIC [4]: 0.016
MIC E. coli BW25113 WUXI::MIC [5]: 50

CC[C@@H]1NC(=O)[C@H](CO)NC(=O)CSC[C@@H](C(=O)NCC(N)=O)NC(=O)[C@H](Cc2cncn2C)NC(=O)[C@H](CCCNC(=N)N)NC(=O)[C@H](Cc2c[nH]cn2)NC(=O)[C@H](Cc2ccc(O)cc2)N(C)C(=O)[C@H](CCCNC(=N)N)NC(=O)[C@H](CO)NC(=O)CNC(=O)[C@H](Cc2c[nH]cn2)NC(=O)[C@H](Cc2cccc3ccccc23)NC1=O [Compound 21, (3R,6S,9S,12S,15S,18S,21S,27S,30S, 33S,36S)-N-(2-amino-2-oxo-ethyl)-33-ethyl-9,18-bis(3-guanidinopropyl)-21,36-bis(hydroxymethyl)-15-[(4-hydroxyphenyl)methyl]-12,27-bis(1H-imidazol-4-ylmethyl)-16-methyl-6-[(3-methylimidazol-4-yl)methyl]-30-(1-naphthylmethyl)-5,8,11,14,17,20,23,26,29,32,35,38-dodecaoxo-1-thia-4,7,10,13,16,19,22,25,28,31,34,37-dodecazacyclononatriacontane-3-carboxamide] ({CH2CO}-S[Abu][1Nal]HGSR[NMeY]HR[His(π-Me)]CG-NH2; thioether N-12)
MIC E. coli 25922 WUXI::MIC [1]: 50
MIC K. pneumoniae ATCC43816 Wuxi::MIC [2]: 25
MIC E. cloacae ATCC222 WUXI::MIC [3]: 3.1
MIC E. coli 25922 IMP WUXI::MIC [4]: 0.063
MIC E. coli BW25113 WUXI::MIC [5]: 50

CCCC[C@@H]1NC(=O)CSC[C@@H](C(=O)NCC(N)=O)NC(=O)[C@H](Cc2cncn2C)NC(=O)[C@H](CCCNC(=N)N)NC(=O)[C@H](Cc2c[nH]cn2)NC(=O)[C@H](Cc2ccc(O)cc2)N(C)C(=O)[C@H](CCCNC(=N)N)NC(=O)[C@H](CO)NC(=O)CNC(=O)[C@H](Cc2c[nH]cn2)NC(=O)[C@H](Cc2cccc3ccccc23)NC(=O)[C@H](CC)NC1=O [Compound 20] ({CH2CO}-[Nle][Abu][1Nal]HGSR[NMeY]HR[His(π-Me)]CG-NH2; thioether N-12)
MIC E. coli 25922 WUXI::MIC [1]: 13
MIC K. pneumoniae ATCC43816 Wuxi::MIC [2]: 25
MIC E. cloacae ATCC222 WUXI::MIC [3]: 1.6
MIC E. coli 25922 IMP WUXI::MIC [4]: 0.0078
MIC E. coli BW25113 WUXI::MIC [5]: 25

CC[C@@H]1NC(=O)[C@H](Cc2ccccc2)NC(=O)CSC[C@@H](C(=O)NCC(N)=O)NC(=O)[C@H](Cc2cncn2C)NC(=O)[C@H](CCCNC(=N)N)N(C)C(=O)[C@H](Cc2c[nH]cn2)NC(=O)[C@H](Cc2ccc(O)cc2)N(C)C(=O)[C@H](CCCNC(=N)N)NC(=O)[C@H](CO)NC(=O)CNC(=O)[C@H](Cc2c[nH]cn2)NC(=O)[C@H](Cc2cccc3ccccc23)NC1=O [Compound 34] ({CH2CO}-F[Abu][1Nal]HGSR[NMeY]H[NMeR][His(π-Me)]CG-NH2; thioether N-12)
MIC E. coli 25922 WUXI::MIC [1]: 41.667
MIC K. pneumoniae ATCC43816 Wuxi::MIC [2]: 25
MIC E. cloacae ATCC222 WUXI::MIC [3]: 6.3
MIC E. coli 25922 IMP WUXI::MIC [4]: 0.063
MIC E. coli BW25113 WUXI::MIC [5]: 100

CC[C@H](C)[C@@H]1NC(=O)[C@H]([C@@H](C)O)NC(=O)[C@H](Cc2cncn2C)NC(=O)[C@H](Cc2ccccc2)NC(=O)CSC[C@@H](C(=O)NCC(N)=O)NC(=O)[C@H](Cc2ccc(O)cc2)NC(=O)[C@H](Cc2c[nH]c3ccccc23)NC(=O)[C@H](Cc2ccc(O)cc2)NC(=O)[C@H](Cc2cncn2C)NC(=O)[C@H](Cc2ccccc2)NC(=O)C(C)(C)NC(=O)[C@H](CCCNC(=N)N)NC(=O)[C@H](CCCCN)NC(=O)[C@H](CCCNC(=N)N)NC1=O [Compound 51] ({CH2CO}-F[His(π-Me)]TIRKR[Aib]F[His(π-Me)]YWYCG-NH2; thioether N-14)
MIC E. coli 25922 WUXI::MIC [1]: 8
MIC K. pneumoniae ATCC43816 Wuxi::MIC [2]: >32
MIC E. cloacae ATCC222 WUXI::MIC [3]: >32
MIC E. coli 25922 IMP WUXI::MIC [4]: 0.5
MIC E. coli BW25113 WUXI::MIC [5]: 8

CC[C@@H]1NC(=O)[C@H](Cc2ccccc2)NC(=O)CSC[C@@H](C(=O)NCC(N)=O)NC(=O)[C@H](Cc2cncn2C)NC(=O)[C@H](CCCNC(=N)N)NC(=O)[C@H](Cc2c[nH]cn2)NC(=O)[C@H](Cc2ccc(O)cc2)N(C)C(=O)[C@H](CCCNC(=N)N)NC(=O)[C@H](CO)NC(=O)[C@@H](CO)NC(=O)[C@H](Cc2c[nH]cn2)NC(=O)[C@H](Cc2cccc3ccccc23)NC1=O [Compound 27] ({CH2CO}-F[Abu][1Nal]H[dS]SR[NMeY]HR[His(π-Me)]CG-NH2; thioether N-12)
MIC E. coli 25922 WUXI::MIC [1]: 3.1
MIC K. pneumoniae ATCC43816 Wuxi::MIC [2]: 13
MIC E. cloacae ATCC222 WUXI::MIC [3]: 0.39
MIC E. coli 25922 IMP WUXI::MIC [4]: 0.002
MIC E. coli BW25113 WUXI::MIC [5]: 13

CC[C@@H]1NC(=O)[C@H](Cc2ccccc2)NC(=O)CSC[C@@H](C(=O)NCC(N)=O)NC(=O)[C@H](Cc2cncn2C)NC(=O)[C@H](C)NC(=O)[C@H](Cc2c[nH]cn2)NC(=O)[C@H](Cc2ccc(O)cc2)N(C)C(=O)[C@H](CCCNC(=N)N)NC(=O)[C@H](CO)NC(=O)CNC(=O)[C@H](Cc2c[nH]cn2)NC(=O)[C@H](Cc2cccc3ccccc23)NC1=O (stereo in doubt) [Compound 38]
MIC E. coli 25922 WUXI::MIC [1]: 100
MIC K. pneumoniae ATCC43816 Wuxi::MIC [2]: 100
MIC E. cloacae ATCC222 WUXI::MIC [3]: 13
MIC E. coli 25922 IMP WUXI::MIC [4]: 0.063
MIC E. coli BW25113 WUXI::MIC [5]: 100

CC[C@@H](C)[C@H]1NC(=O)[C@@H](Cc2ccccc2)NC(=O)CSC[C@H](C(=O)NCC(N)=O)NC(=O)[C@@H](Cc2cncn2C)NC(=O)[C@@H](CCCNC(=N)N)NC(=O)[C@@H](Cc2cnc[nH]2)NC(=O)[C@@H](Cc2ccc(O)cc2)N(C)C(=O)[C@@H](CCCNC(=N)N)NC(=O)[C@@H](CO)NC(=O)CNC(=O)[C@@H](Cc2cnc[nH]2)NC(=O)[C@@H](Cc2cccc3ccccc23)NC1=O (mixture of isomers) [Compound 18]
MIC E. coli 25922 WUXI::MIC [1]: 9.65
MIC K. pneumoniae ATCC43816 Wuxi::MIC [2]: 19
MIC E. cloacae ATCC222 WUXI::MIC [3]: 0.78
MIC E. coli 25922 IMP WUXI::MIC [4]: 0.00585
MIC E. coli BW25113 WUXI::MIC [5]: 19

CC[C@@H]1NC(=O)[C@H](Cc2ccc(Cl)cc2)NC(=O)CSC[C@@H](C(=O)NCC(N)=O)NC(=O)[C@H](Cc2cncn2C)NC(=O)[C@H](CCCNC(=N)N)NC(=O)[C@H](Cc2c[nH]cn2)NC(=O)[C@H](Cc2ccc(O)cc2)N(C)C(=O)[C@H](CCCNC(=N)N)NC(=O)[C@H](CO)NC(=O)CNC(=O)[C@H](Cc2c[nH]cn2)NC(=O)[C@H](Cc2cccc3ccccc23)NC1=O [Compound 22] ({CH2CO}-[Phe(4-Cl)][Abu][1Nal]HGSR[NMeY]HR[His(π-Me)]CG-NH2; thioether N-12)
MIC E. coli 25922 WUXI::MIC [1]: 6.3
MIC K. pneumoniae ATCC43816 Wuxi::MIC [2]: 13
MIC E. cloacae ATCC222 WUXI::MIC [3]: 0.39
MIC E. coli 25922 IMP WUXI::MIC [4]: 0.002
MIC E. coli BW25113 WUXI::MIC [5]: 25

CC[C@@H]1NC(=O)[C@H](Cc2ccccc2)NC(=O)CSC[C@@H](C(=O)NCC(N)=O)NC(=O)[C@H](Cc2cncn2C)NC(=O)[C@H](CCCNC(=N)N)NC(=O)[C@H](Cc2c[nH]cn2)NC(=O)[C@H](Cc2ccc(O)cc2)N(C)C(=O)[C@H](CCCNC(=N)N)NC(=O)[C@H]([C@H](C)O)NC(=O)CNC(=O)[C@H](Cc2c[nH]cn2)NC(=O)[C@H](Cc2cccc3ccccc23)NC1=O [Compound 31] ({CH2CO}-F[Abu][1Nal]HG[aThr]R[NMeY]HR[His(π-Me)]CG-NH2; thioether N-12)
MIC E. coli 25922 WUXI::MIC [1]: 25
MIC K. pneumoniae ATCC43816 Wuxi::MIC [2]: 50
MIC E. cloacae ATCC222 WUXI::MIC [3]: 6.3
MIC E. coli 25922 IMP WUXI::MIC [4]: 0.016
MIC E. coli BW25113 WUXI::MIC [5]: 50
